Measurements published in patent publication US20100189648A1, “INHIBITORS FOR DISRUPTING THE INTERACTION OF UBIQUITINATION RELATED ENZYMES AND USES THEREOF” (priority 2006, published 2010).

Key:
Assay type in all cases: cell-based, human
[1] = system: HCT116; assay: MTT survival assay, colon cancer cell line (HCT116); parameters: IC50 (95% confidence level), interval: unit not given beside the values
Procedure: (§1) The effect of the above identified compounds on anti-tumor activity in human carcinoma cells was determined by the MTT survival assay. The MTT assay is a commonly used method in evaluation of cell survival, based on the ability of viable cells to convert MTT (MTT, Sigma, Cat No. 044K5307), a soluble tetrazolium salt [3-(4,5-dimethylthuazole-2-yl)-2,5 diphenyl tetrazolium bromide], into an insoluble formazan precipitate, which is quantitated by spectrophotometry following solubilization in dimethyl sulfoxide (DMSO).
(§2) In brief, different carcinoma cells were treated with negative control, various test articles at different concentration, and positive control (DDP), in 96-well tissue culture dishes. Each test article at different concentration is repeated 3 times.
(§3) Different carcinoma cells were diluted with 10% FBS and RPM1640 or MEM media to a concentration of 3-5×10^4 per ml suspension. 100 microliter of cells were incubated in each well in 96-well tissue culture dishes at 37 C. The cells were incubated at 37 C on the first day. On the second day, media supernatant was removed and replaced with media and different concentration of test articles (100 microliter in each well). Three Negative control wells and three positive control (DDP) wells were also included. The 96-well plate were incubated at 37 C for another 68 hours. After 68 hours, supernatant of each well was removed. 100 microliter of 1 mg/ml MTT diluted in PBS was injected into each well. The cells were incubated at 37 C for another 4 hours. The cells were then solubilized in 150 microliter DMSO, mixed for 10 minutes and absorbance readings were taken using Microplate reader Bio-Rad Model 550 at 570 nm. IR (cell growth inhibition rate) % was calculated as (OD570 of negative control-OD570 with test article)/OD570 of negative control. IC50 (cell 50% inhibition concentration) at 95% confidence level was calculated with Bliss method.

[2] = system: SMMC-7721; assay: MTT survival assay, liver cancer cell line (SMMC-7721)
Procedure: as §1, §2, §3

[3] = system: MCF-7; assay: MTT survival assay, breast cancer cell line (MCF-7); parameters: IC50 (95% confidence level), interval: unit not given beside the values
Procedure: as §1, §2, §3

[4] = system: U251; assay: MTT survival assay, glioma cell line (brain tumor U251); conditions: for IC50 (95% confidence level): Bliss method, unit not printed (concentrations in μg/ml)
Procedure: as §1, §2, §3

[5] = system: A459; assay: MTT survival assay, lung cancer cell line (A459); parameters: IC50 (95% confidence level), interval: unit not given beside the values; conditions: for IC50 (95% confidence level), interval: 95% confidence limits of IC50; for IC50 (95% confidence level): Bliss method, unit not printed (concentrations in μg/ml)
Procedure: as §1, §2, §3

[6] = system: SKOV3; assay: MTT survival assay, ovarian cancer cell line (SKOV3); conditions: for IC50 (95% confidence level): Bliss method, unit not printed (concentrations in μg/ml)
Procedure: as §1, §2, §3

[7] = system: Hela cells; assay: MTT survival assay, cervical cancer line (Hela cells); parameters: IC50 (95% confidence level), interval: unit not given beside the values
Procedure: as §1, §2, §3

[8] = Bliss method, unit not printed (concentrations in μg/ml)
[9] = SMMC-7721 Experiment #2, 0.25 μg/ml
[10] = SMMC-7721 Experiment #2, 1 μg/ml
[11] = SMMC-7721 Experiment #2, 4 μg/ml
[12] = U251 (first table), 0.0625 μg/ml
[13] = U251 (second table), 0.0625 μg/ml
[14] = U251 (second table), 0.25 μg/ml
[15] = A459 Experiment #2, 0.0625 μg/ml
[16] = SKOV3 (first table), 0.0625 μg/ml
[17] = SKOV3 (first table), 0.25 μg/ml
[18] = SKOV3 (second table), 0.0625 μg/ml
[19] = SKOV3 (second table), 0.25 μg/ml

With `N.N.[Cl][Pt][Cl]` [DDP, cisplatin, reference compound] the “IR (%)” value ([1]; 0.25 μg/ml) was 51.0%, the “OD(A570 nm)” value ([1]; 0.25 μg/ml) was 0.266 ± 0.016 and the “IR (%)” value ([1]; 1 μg/ml) was 62.9%. For the same compound, the “OD(A570 nm)” value ([1]; 1 μg/ml) was 0.201 ± 0.060, the “IR (%)” value ([1]; 4 μg/ml) was 75.5% and the “OD(A570 nm)” value ([1]; 4 μg/ml) was 0.133 ± 0.016. For the same compound, the “IC50 (95% confidence level), interval” value ([1]; 95% confidence limits of IC50) was 0.211-0.257, the “IC50 (95% confidence level)” value [1, 8] was 0.234 and the “IR (%)” value ([2]; SMMC-7721, 0.0625 μg/ml) was −29.4%. The “OD(A570 nm)” value ([2]; SMMC-7721, 0.0625 μg/ml) was 0.570 ± 0.166, the “IR (%)” value ([2]; SMMC-7721, 0.25 μg/ml) was 46.2% and the “OD(A570 nm)” value ([2]; SMMC-7721, 0.25 μg/ml) was 0.237 ± 0.020. For the same compound, the “IR (%)” value ([2]; SMMC-7721, 1 μg/ml) was 71.0%, the “OD(A570 nm)” value ([2]; SMMC-7721, 1 μg/ml) was 0.128 ± 0.011 and the “IR (%)” value ([2]; SMMC-7721, 4 μg/ml) was 61.6%. For the same compound, the “OD(A570 nm)” value ([2]; SMMC-7721, 4 μg/ml) was 0.169 ± 0.022, the “IR (%)” value [2, 9] was 24.5% and the “OD(A570 nm)” value [2, 9] was 0.348 ± 0.045. For the same compound, the “IR (%)” value [2, 10] was 43.1%, the “OD(A570 nm)” value [2, 10] was 0.262 ± 0.020 and the “IR (%)” value [2, 11] was 47.0%. For the same compound, the “OD(A570 nm)” value [2, 11] was 0.244 ± 0.155, the “IC50 (95% confidence level), interval” value ([2]; SMMC-7721 Experiment #2, 95% confidence limits of IC50) was 3.757-4.640 and the “IC50 (95% confidence level)” value ([2]; SMMC-7721 Experiment #2, Bliss method, unit not printed (concentrations in μg/ml)) was 4.155. The “IR (%)” value ([3]; 0.0625 μg/ml) was 12.8%, the “OD(A570 nm)” value ([3]; 0.0625 μg/ml) was 0.787 ± 0.005 and the “IR (%)” value ([3]; 0.25 μg/ml) was 2.6%. The “OD(A570 nm)” value ([3]; 0.25 μg/ml) was 0.879 ± 0.059, the “IR (%)” value ([3]; 1 μg/ml) was 83.3% and the “OD(A570 nm)” value ([3]; 1 μg/ml) was 0.151 ± 0.011. The “IR (%)” value ([3]; 4 μg/ml) was 88.2%, the “OD(A570 nm)” value ([3]; 4 μg/ml) was 0.107 ± 0.007 and the “IC50 (95% confidence level), interval” value ([3]; 95% confidence limits of IC50) was 0.483-0.737. For the same compound, the “IC50 (95% confidence level)” value [3, 8] was 0.596, the “IR (%)” value [4, 12] was 16.8% and the “OD(A570 nm)” value [4, 12] was 0.729 ± 0.090. For the same compound, the “IR (%)” value ([4]; U251 (first table), 0.25 μg/ml) was 21.5%, the “OD(A570 nm)” value ([4]; U251 (first table), 0.25 μg/ml) was 0.688 ± 0.035 and the “IR (%)” value ([4]; U251 (first table), 1 μg/ml) was 58.4%. The “OD(A570 nm)” value ([4]; U251 (first table), 1 μg/ml) was 0.365 ± 0.058, the “IR (%)” value ([4]; U251 (first table), 4 μg/ml) was 80.2% and the “OD(A570 nm)” value ([4]; U251 (first table), 4 μg/ml) was 0.174 ± 0.009. For the same compound, the “IC50 (95% confidence level)” value ([4]; U251 (first table)) was 1.13, the “IR (%)” value [4, 13] was 16.8% and the “OD(A570 nm)” value [4, 13] was 0.729 ± 0.090. The “IR (%)” value [4, 14] was 21.5%, the “OD(A570 nm)” value [4, 14] was 0.688 ± 0.035 and the “IR (%)” value ([4]; U251 (second table), 1 μg/ml) was 58.4%. For the same compound, the “OD(A570 nm)” value ([4]; U251 (second table), 1 μg/ml) was 0.365 ± 0.058, the “IR (%)” value ([4]; U251 (second table), 4 μg/ml) was 80.2% and the “OD(A570 nm)” value ([4]; U251 (second table), 4 μg/ml) was 0.174 ± 0.009. The “IC50 (95% confidence level)” value ([4]; U251 (second table)) was 1.13, the “IR (%)” value ([5]; A459, 0.0625 μg/ml) was 23.9% and the “OD(A570 nm)” value ([5]; A459, 0.0625 μg/ml) was 0.485 ± 0.046. For the same compound, the “IR (%)” value ([5]; A459, 0.25 μg/ml) was 18.8%, the “OD(A570 nm)” value ([5]; A459, 0.25 μg/ml) was 0.517 ± 0.073 and the “IR (%)” value ([5]; A459, 1 μg/ml) was 46.4%. For the same compound, the “OD(A570 nm)” value ([5]; A459, 1 μg/ml) was 0.341 ± 0.060, the “IR (%)” value ([5]; A459, 4 μg/ml) was 71.0% and the “IC50 (95% confidence level), interval” value ([5]; A459) was 1.113-1.213. The “IC50 (95% confidence level)” value ([5]; A459) was 1.162, the “IR (%)” value [5, 15] was 23.9% and the “OD(A570 nm)” value [5, 15] was 0.485 ± 0.046. The “IR (%)” value ([5]; A459 Experiment #2, 0.25 μg/ml) was 18.8%, the “OD(A570 nm)” value ([5]; A459 Experiment #2, 0.25 μg/ml) was 0.517 ± 0.073 and the “IR (%)” value ([5]; A459 Experiment #2, 1 μg/ml) was 46.4%. The “OD(A570 nm)” value ([5]; A459 Experiment #2, 1 μg/ml) was 0.341 ± 0.060, the “IR (%)” value ([5]; A459 Experiment #2, 4 μg/ml) was 71.0% and the “IC50 (95% confidence level), interval” value ([5]; A459 Experiment #2) was 1.114-1.213. The “IC50 (95% confidence level)” value ([5]; A459 Experiment #2) was 1.162, the “IR (%)” value [6, 16] was 1.6% and the “OD(A570 nm)” value [6, 16] was 0.689 ± 0.065. The “IR (%)” value [6, 17] was 8.3%, the “OD(A570 nm)” value [6, 17] was 0.643 ± 0.141 and the “IR (%)” value ([6]; SKOV3 (first table), 1 μg/ml) was 62.0%. The “OD(A570 nm)” value ([6]; SKOV3 (first table), 1 μg/ml) was 0.267 ± 0.044, the “IR (%)” value ([6]; SKOV3 (first table), 4 μg/ml) was 88.2% and the “OD(A570 nm)” value ([6]; SKOV3 (first table), 4 μg/ml) was 0.083 ± 0.002. For the same compound, the “IC50 (95% confidence level)” value ([6]; SKOV3 (first table)) was 0.89, the “IR (%)” value [6, 18] was 1.6% and the “OD(A570 nm)” value [6, 18] was 0.689 ± 0.065. For the same compound, the “IR (%)” value [6, 19] was 8.3%, the “OD(A570 nm)” value [6, 19] was 0.643 ± 0.141 and the “IR (%)” value ([6]; SKOV3 (second table), 1 μg/ml) was 62.0%. The “OD(A570 nm)” value ([6]; SKOV3 (second table), 1 μg/ml) was 0.267 ± 0.044, the “IR (%)” value ([6]; SKOV3 (second table), 4 μg/ml) was 88.2% and the “OD(A570 nm)” value ([6]; SKOV3 (second table), 4 μg/ml) was 0.083 ± 0.002. For the same compound, the “IC50 (95% confidence level)” value ([6]; SKOV3 (second table)) was 0.89, the “IR (%)” value ([7]; 0.0625 μg/ml) was 35.3% and the “OD(A570 nm)” value ([7]; 0.0625 μg/ml) was 0.481 ± 0.081. The “IR (%)” value ([7]; 0.25 μg/ml) was 72.2%, the “OD(A570 nm)” value ([7]; 0.25 μg/ml) was 0.206 ± 0.014 and the “IR (%)” value ([7]; 1 μg/ml) was 83.4%. For the same compound, the “OD(A570 nm)” value ([7]; 1 μg/ml) was 0.123 ± 0.007, the “IR (%)” value ([7]; 4 μg/ml) was 89.5% and the “OD(A570 nm)” value ([7]; 4 μg/ml) was 0.078 ± 0.001. The “IC50 (95% confidence level), interval” value ([7]; 95% confidence limits of IC50) was 0.062-0.156 and the “IC50 (95% confidence level)” value [7, 8] was 0.105.
